pIC50: −log10 of the molar value.
How the values were obtained:
[1] = target: T1, mouse PDGF-β receptor tyrosine kinase (Mus musculus, UniProt P05622); assay: PDGF receptor tyrosine kinase assay (32P incorporation into glutamate-tyrosine co-polymer); assay type: biochemical; settings: read-out: PDGFr-TK IC50
T1 construct: amplify a fragment of DNA that codes for the intracellular tyrosine kinase domain; made in house; host or cells: SF9 insect cells (baculovirus)
Method in brief: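 32P transfer from γ32P-ATP (50 µM ATP) to poly(Glu,Tyr) 4:1 was measured over 10 min at 25°C and counted after TCA precipitation onto filters, minus the no-enzyme background. Enzyme was baculovirus/SF9 lysate of the kinase domain, preincubated 10 min with inhibitor in Hepes pH 7.0, MnCl2, vanadate.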

[2] = target: T2, Human EGF receptor tyrosine kinase (Homo sapiens, UniProt P00533); assay: EGF receptor tyrosine kinase enzyme assay (substrate peptide phosphorylation); assay type: biochemical; settings: read-out: EGF-FL IC50
T2 construct: Human EGF receptor tyrosine kinase was isolated from A431 epidermoid carcinoma cells; endogenous in cells; host or cells: A431 epidermoid carcinoma cells

PDGF receptor = PDGF receptor autophosphorylation in rat aorta smooth muscle cells; assay type: cell-based; settings: read-out: Inhibition of PDGF-Stimulated Receptor Auto Phosphorylation in Rat Aortic Smooth Muscle Cells (IC50); PDGF-BB 30 ng/mL for 5 minutes after 2 hours with compound
Experimental: Rat aorta smooth muscle cells (RASMC) were isolated from the thoracic aorta of rats and explanted according to the method of Ross, J. Cell. Biol., 30:172-186 (1971). Cells were grown in Dulbecco's modified Eagle's medium (DMEM, Gibco) containing 10% fetal calf serum (FBS, Hyclone, Logan, Utah), 1% glutamine (Gibco) and 1% penicillin/streptomycin (Gibco). Cells were identified as smooth muscle cells by their "hill and valley" growth pattern and by fluorescent staining with a monoclonal antibody specific for SMC ∝-actin (Sigma). RASMC were used between passages 5 and 20 for all experiments. Test compounds were prepared in dimethylsulfoxide (DMSO) in order to achieve consistency in the vehicle and to ensure compound solubility. Appropriate DMSO controls were simultaneously evaluated with the test compounds.
RASMC were grown to confluency in 100 mm dishes. Growth medium was removed and replaced with serum-free medium and cells were incubated at 37°C for an additional 24 hours. Test compounds were then added directly to the medium and cells incubated for an additional 2 hours. After 2 hours, PDGF-BB was added at a final concentration of 30 ng/mL for 5 minutes at 37°C to stimulated autophosphorylation of the PDGF receptor. Following growth factor treatment, the medium was removed, and cells were washed with cold phosphate-buffered saline and immediately lysed with 1 mL of lysis buffer (50 mM HEPES[pH 7.5], 150 mM NaCl, 10% glycerol, 1% Triton X-100, 1 mM EDTA, 1 mMEGTA, 50 mM NaF, 1 mM sodium orthovanadate, 30 mM p-nitrophenyl phosphate, 10 mM sodium pyrophosphate, 1 mM phenylmethyl sulfonyl fluoride, 10 µg/mL aprotinin, and 10 µg/mL leupeptin). Lysates were centrifuged at 10,000 × g for 10 minutes. […] Following the incubation, protein-A-sepharose beads were added for 2 hours with continuous mixing, and immune complexes bound to the beads washed four times with 1 mL lysis wash buffer. Immune complexes were solubilized in 30 µL of Laemmli sample buffer and electrophoresed in 4-20% SDS polyacrylamide gels. Following electrophoresis, separated proteins were transferred to nitrocellulose and immunoblotted with anti-phosphotyrosine antiserum. […] IC50 values were generated from the densitometric data.

T1 sequence (P05622 599-961 limits assumed): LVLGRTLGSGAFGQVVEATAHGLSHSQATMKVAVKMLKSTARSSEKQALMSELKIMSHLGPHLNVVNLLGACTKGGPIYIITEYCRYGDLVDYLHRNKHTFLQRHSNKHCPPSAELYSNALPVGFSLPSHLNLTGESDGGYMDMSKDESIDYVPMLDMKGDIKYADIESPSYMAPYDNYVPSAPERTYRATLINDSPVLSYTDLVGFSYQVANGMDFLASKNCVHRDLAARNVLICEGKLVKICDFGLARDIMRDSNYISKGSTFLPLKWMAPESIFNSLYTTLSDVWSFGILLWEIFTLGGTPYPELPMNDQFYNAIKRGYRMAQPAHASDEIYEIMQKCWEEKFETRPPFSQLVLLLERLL
T2 sequence (P00533 25-1210): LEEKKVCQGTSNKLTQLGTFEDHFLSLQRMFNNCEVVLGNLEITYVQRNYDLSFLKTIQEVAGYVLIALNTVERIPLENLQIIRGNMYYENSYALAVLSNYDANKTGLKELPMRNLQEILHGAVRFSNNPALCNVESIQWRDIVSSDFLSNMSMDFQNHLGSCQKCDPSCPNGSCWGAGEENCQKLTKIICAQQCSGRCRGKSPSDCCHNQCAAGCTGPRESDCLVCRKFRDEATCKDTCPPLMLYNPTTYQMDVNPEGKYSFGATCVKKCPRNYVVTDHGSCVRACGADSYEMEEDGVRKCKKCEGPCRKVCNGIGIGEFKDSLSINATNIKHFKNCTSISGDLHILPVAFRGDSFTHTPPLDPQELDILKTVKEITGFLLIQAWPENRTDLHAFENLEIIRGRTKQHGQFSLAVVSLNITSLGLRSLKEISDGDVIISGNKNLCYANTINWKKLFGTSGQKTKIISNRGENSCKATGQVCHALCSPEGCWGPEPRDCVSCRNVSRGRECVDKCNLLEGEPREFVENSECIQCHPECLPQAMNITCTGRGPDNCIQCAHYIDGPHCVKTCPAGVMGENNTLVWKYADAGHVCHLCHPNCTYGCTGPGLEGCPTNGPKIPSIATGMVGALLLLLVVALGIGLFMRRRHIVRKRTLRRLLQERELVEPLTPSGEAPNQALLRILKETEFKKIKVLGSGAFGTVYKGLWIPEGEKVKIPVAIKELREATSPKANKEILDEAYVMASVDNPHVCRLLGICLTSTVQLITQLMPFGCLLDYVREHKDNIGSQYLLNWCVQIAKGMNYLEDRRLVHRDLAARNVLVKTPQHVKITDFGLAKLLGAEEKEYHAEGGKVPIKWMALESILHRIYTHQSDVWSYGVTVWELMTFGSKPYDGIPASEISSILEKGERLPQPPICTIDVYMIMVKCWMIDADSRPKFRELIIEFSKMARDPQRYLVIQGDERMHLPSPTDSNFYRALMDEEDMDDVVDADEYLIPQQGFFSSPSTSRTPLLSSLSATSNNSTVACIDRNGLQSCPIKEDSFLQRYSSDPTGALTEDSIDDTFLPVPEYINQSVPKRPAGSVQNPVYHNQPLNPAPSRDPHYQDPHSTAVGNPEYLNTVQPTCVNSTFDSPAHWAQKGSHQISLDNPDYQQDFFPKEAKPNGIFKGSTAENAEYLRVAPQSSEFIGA

Cn1c(=O)c(-c2c(Cl)cccc2Cl)cc2cnc(Nc3ccccc3)nc21 [Example 54, 6-(2,6-Dichlorophenyl)-8-methyl-2-phenylamino-8H-pyrido[2,3-d]pyrimidin-7-one]
pIC50 [1]: 6.64 | pIC50 [2]: 7.11 | pIC50 (PDGF receptor): 7.80
